Data: patent publication US5922718A, “Triazolones as apolipoprotein-B synthesis inhibitors” (Janssen Pharmaceutica, N.V., priority 1995, dated 1999)

Each compound was assayed on apolipoprotein B (assay: Apolipoprotein B (apo B) Inhibition Test). Details: HepG2-cells, overnight at 37° C., radioactively labelled leucine, double immunoprecipitation; read-out: IC50 (concentration of the drug needed to reduce apoB secretion to 50% of the control).
Assay type: cell-based, human
Experimental: Cultured human liver cells (HepG2-cells), which synthesize and secrete low-density lipoproteins, were incubated overnight at 37° C. in a liquid medium containing radioactively labelled leucine. Thus radioactively labelled leucine was incorporated into the apolipoprotein B. The liquid medium was decanted and the apolipoprotein B was isolated by means of a double immunoprecipitation, i.e. first an apolipoprotein B-specific antibody (antibody1) was added to the liquid medium and subsequently a second antibody (antibody2) was added which binds specifically to the apoB-antibody1 -complex. The thus formed apoB-antibody1 -antibody2 complex precipitated and was isolated by centrifuge. Quantification of the amount of apolipoprotein B synthesized during the night resulted from measuring the radioactivity of the isolated complex. To measure the inhibiting activity of the test compound, that test compound was added to the liquid medium at different concentrations and the concentration of apolipoprotein B synthesized in the presence of a test compound (concentration apoB(after)) was compared to the concentration of apolipoprotein B which was synthesized in the absence of the test compound (concentration apoB(control)). For each experiment the inhibition of apolipoprotein-B formation was expressed as
% inhibition=100×(1-concentration of apoB(after)/concentration
When more experiments were carried out for the same concentration, the median value of the inhibition calculated for these experiments was calculated. IC50 -values (concentration of the drug needed to reduce apoB secretion to 50% of the control) were also computed.

`CCC(C)n1cnn(-c2ccc(N3CCN(c4ccc(OCC5COC(CCn6cncn6)(c6ccc(F)cc6F)O5)cc4)CC3)cc2)c1=O` (stereo not shown) [Compound 26] showed an IC50 of 300 nM.

Same assay, conditions: Homo sapiens, HepG2-cells, overnight at 37° C., radioactively labelled leucine, double immunoprecipitation; read-out: IC50 (concentration of the drug needed to reduce apoB secretion to 50% of the control)

Point of comparison: `CCC(C)n1cnn(-c2ccc(N3CCN(c4ccc(OCC5COC(CCn6cncn6)(c6ccc(Cl)cc6)O5)cc4)CC3)cc2)c1=O` (stereo not shown) [Compound 27], IC50 270 nM. Against it:
- CCCn1c(C)nn(-c2ccc(N3CCN(c4ccc(OC[C@H]5CO[C@](Cn6ccnc6)(c6ccc(Cl)cc6Cl)O5)cc4)CC3)cc2)c1=O (relative stereo) [Compound 4] — 3.7-fold higher, 1000 nM
- CC(C)n1cnn(-c2ccc(N3CCN(c4ccc(OC[C@H]5CO[C@](Cn6ccnc6)(c6ccc(Cl)cc6Cl)O5)cc4)CC3)cc2)c1=O (relative stereo) [Compound 7] — 2.3-fold higher, 630 nM
- CC(C)n1cnn(-c2ccc(N3CCN(c4ccc(OC[C@H]5CO[C@](Cn6ccnc6)(c6cccc7ccccc67)O5)cc4)CC3)cc2)c1=O (relative stereo) [Compound 9] — 2.1-fold higher, 560 nM
- CC(C)n1cnn(-c2ccc(N3CCN(c4ccc(OC[C@H]5CO[C@](Cn6cccn6)(c6ccc(F)cc6F)O5)cc4)CC3)cc2)c1=O (relative stereo) [Compound 10] — within 1.5-fold, 290 nM
- CC(C)n1cnn(-c2ccc(N3CCN(c4ccc(OC[C@H]5CO[C@](Cn6cncn6)(c6ccc(Cl)cc6Cl)O5)cc4)CC3)cc2)c1=O (relative stereo) [Compound 17] — 2.7-fold higher, 720 nM
- CC(C)n1cnn(-c2ccc(N3CCN(c4ccc(OC[C@H]5CO[C@](Cn6cncn6)(c6ccc(F)cc6F)O5)cc4)CC3)cc2)c1=O (relative stereo) [Compound 23] — within 1.5-fold, 340 nM
- CC(C)n1cnn(-c2ccc(N3CCN(c4ccc(OC[C@H]5CO[C@](Cn6cncn6)(c6cccc7ccccc67)O5)cc4)CC3)cc2)c1=O (relative stereo) [Compound 24] — 3.4-fold higher, 910 nM
- CCC(C)n1cnn(-c2ccc(N3CCN(c4ccc(OC[C@H]5CO[C@](Cn6cncn6)(c6ccc(F)cc6F)O5)cc4)CC3)cc2)c1=O (stereo partly drawn) [Compound 19, cis-2-[4-[4-[4-[[2-(2,4-difluorophenyl)-2-(1H-1,2,4-triazol-1yl-methyl)-1,3-dioxolan-4-yl]methoxy]phenyl]-1-piperazinyl]phenyl]-2,4-dihydro-4-(1-methylpropyl)-3H-1,2,4-triazol-3-one] — 1.6-fold lower, 170 nM
- CCC(C)n1cnn(-c2ccc(N3CCN(c4ccc(OC[C@H]5CO[C@](Cn6cncn6)(c6ccc(F)cc6)O5)cc4)CC3)cc2)c1=O (stereo partly shown) [Compound 20] — 3.2-fold higher, 860 nM
- CCC(C)n1cnn(-c2ccc(N3CCN(c4ccc(OC[C@H]5CO[C@](Cn6cncn6)(c6ccc(Cl)cc6Cl)O5)cc4)CC3)cc2)c1=O (stereo partly shown) [Compound 22] — within 1.5-fold, 390 nM
- CCC(C)n1cnn(-c2ccc(N3CCN(c4ccc(OCC5COC(CCn6cncn6)(c6ccc(F)cc6F)O5)cc4)CC3)cc2)c1=O (stereo not shown) [Compound 25] — within 1.5-fold, 230 nM
